Data on 16 compounds can be found in patent publication US6225478A, “Iridoid derivatives and neovascularization inhibitors containing the same as active ingredient” (Tsumura & Co., priority 1999, dated 2001).

What all share (format): cell-based
Assay [1] has as its system human umbilical-vein endothelial cells (HUVEC). The assay is described as follows: Cell Proliferation Assay (CPA) Test, HUVEC, MTT. The settings on record: Homo sapiens, M199 (2+) medium, read-out: CPA (IC50 μg/ml). The procedure, abridged:
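HUVEC (7th subculture) seeded at 5×10^4 cells/ml in M-199 with 20% FCS, 10 ng/ml b-FGF and 10 ng/ml EGF, grown 24 h at 37 °C, 5% CO2. Compounds added from 1 mg/ml or 0.1 mg/ml samples in 5% DMSO-PBS(−), renewed with medium after 24 h, then cultured 48 h more. Read-out by MTT with 4 h incubation and SDS/HCl stop.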

For assay [2] the test system is unchanged. Kind of assay: Cell Migration Assay (CMA) Test, HUVEC (% relative to control). The settings on record: Homo sapiens, HUVEC, 24 hours, 60% or less = remarkable inhibition, read-out: CMA (% relative to control); for activity at 1 µg/mL: 1 μg/ml; for activity at 10 µg/mL: 10 μg/ml. The procedure, abridged:
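Confluent 7th-subculture HUVEC monolayers scraped with razor blade, then given M199 (2+) plus 40 or 4 μl of 1 mg/ml sample (in 5% DMSO-PBS) per 4.0 ml medium for 24 h at 37 °C. Methanol-fixed, Giemsa-stained; newly migrated cells counted microscopically in 1 mm×1 mm blocks, expressed versus M199 (2+) control.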

Assay [3] shares this test system. Kind of assay: Tube Formation Assay (TFA) Test, HUVEC in collagen gel. As to conditions: Homo sapiens, HUVEC, 20 hours, 40% or less judged remarkable, read-out: TFA (inhibition rate, %); for inhibition at 1 µg/mL: 1 μg/ml; for inhibition at 10 µg/mL: 10 μg/ml. The procedure, abridged: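 Inhibition rate (%) of tube formation is computed from tube lengths against control (+) and control (-), measured after 20 h at 37 °C in M-199 with 20% FCS, 30 ng/ml b-FGF and 0.1 μM PMA. Samples were applied to HUVEC on collagen and covered by a second collagen layer (double-layer gel).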

Converted amounts (≈) assume the structure as drawn. Read-outs that look alike come from different tables or passages of the source.

As a reminder, the inhibition is the drop in the measured response relative to a control, in per cent.

Take `CNC(=O)O[C@@H]1OC=C(C(=O)OC)[C@H]2C[C@@H]3OC3(COC(=O)OC)C12` (stereo in doubt) [compound 47, (1S,4aS,6S,7R,7aR)-6,7-epoxy-7-(methoxycarbonyloxymethyl)-1-(methylcarbamoyloxy)-1,4a,5,6,7,7a-hexahydrocyclopenta [c] pyrane-4-carboxylic acid methylester]: the IC50 in assay [1] is > 100 µg/mL. In assay [2], the activity at 1 µg/mL came to 95.9% and the activity at 10 µg/mL was found to be 60.5%. Also, in assay [3] (20 h), the inhibition at 1 µg/mL was -27.3% and the inhibition at 10 µg/mL was 2.6%.
The matching figures for `CNC(=O)OCC12O[C@H]1C[C@@H]1C(C(=O)OC)=CO[C@@H](OC(=O)NC)C12` (stereo in doubt) [compound 48, (1S,4aS,6S,7R,7aR)-6,7-epoxy-1-(methylcarbamoyloxy)-7-(methylcarbamoyloxymethyl)-1,4a,5,6,7,7a-hexahydrocyclopenta [c] pyrane-4-carboxylic acid methylester]: > 100 µg/mL, 93.3%, 107%, 51.5% and 54.1%.
The matching figures for `CNC(=O)O[C@@H]1OC=C(C(=O)OC2CCCCC2)[C@H]2C[C@@H]3O[C@]3(C)[C@H]12` [compound 14, (1S,4aS,6S,7R,7aR)-6,7-epoxy-1,4a,5,6,7,7a-hexahydro-7-methyl-1-(methylcarbamoyloxy) cyclopenta [c]-pyrane-4-carboxylic acid cyclohexylester]: > 100 µg/mL, 99.4%, 102%, 38.2% and 48.7%.
With `CNC(=O)O[C@@H]1OC=C(C(=O)OC)[C@H]2C[C@@H]3O[C@]3(COC(C)=O)[C@@H]12` [compound 46, (1S,4aS,6S. 7R,7aR)-7-(acetoxymethyl)-6,7-epoxy-1-(methylcarbamoyloxy)-1,4a,5,6,7,7a-hexahydro [c] pyrane-4-carboxylic acid methylester], the IC50 in assay [1] was > 100 µg/mL. Moreover, in assay [2], the activity at 1 µg/mL is 105% and the activity at 10 µg/mL turned out to be 103%. In assay [3] (20 h), the inhibition at 1 µg/mL is -0.8% and the inhibition at 10 µg/mL stood at 1.5%.
In the case of `COC(=O)C1=CO[C@@H](OC(=O)NC(=O)CCl)[C@@H]2[C@@H]1C[C@@H]1O[C@]21C` [compound 39, (1S,4aS,6S,7R,7aR)-1-(chloroacetylcarbamoyloxy)-6,7-epoxy-1,4a,5,6,7,7a-hexahydro-7-methylcyclopenta [c] pyrane-4-carboxylic acid methylester], the IC50 in assay [1] is 55 µg/mL (≈ 159 µM). In addition, in assay [2], the activity at 1 µg/mL came to 110% and the activity at 10 µg/mL was 94.6%. Further, in assay [3] (20 h), the inhibition at 1 µg/mL stood at 37.6% and the inhibition at 10 µg/mL turned out to be 39.7%.
`CN(Cc1cnc2nc(N)nc(N)c2n1)c1ccc(C(=O)N[C@@H](CCC(=O)O)C(=O)O)cc1` [MTX, Methotrexate, reference compound]: the IC50 in assay [1] was 0.04 µg/mL (≈ 0.088 µM). In assay [2], the activity at 1 µg/mL is 102% and the activity at 10 µg/mL stood at 103%. Moreover, in assay [3], the inhibition at 1 µg/mL was determined as 37.5% and the inhibition at 10 µg/mL is 42.6%.
With `CCOC(=O)C1=CO[C@@H](OC(=O)NC)[C@@H]2[C@@H]1C[C@@H]1O[C@]21C` [compound 4, (1S,4aS,6S,7R,7aR)-6,7-epoxy-1,4a,5,6,7,7a-hexahydro-7-methyl-1-(methylcarbamoyloxy) cyclopenta [c]-pyrane-4-carboxylic acid ethylester], in assay [1], the IC50 was > 100 µg/mL. In assay [2], the activity at 1 µg/mL is 70.8% and the activity at 10 µg/mL amounted to 53%. Also, in assay [3] (20 h), the inhibition at 1 µg/mL turned out to be 40.5% and the inhibition at 10 µg/mL amounted to 5.6%.
The matching figures for `CNC(=O)OC1OC=C(C(=O)N2CCN(C)CC2)C2CC3OC3(C)C12` [compound 20, (1S,4aS,6S,7R,7aR)-6,7-epoxy-1,4a,5,6,7,7a-hexahydro-7-methyl-1-(methylcarbamoyloxy) cyclopenta [c]-pyrane-4-carboxylic acid 4-methylpiperazylamide]: > 100 µg/mL, 97.4%, 89.5%, 34.3% and 19.6%.
For `COC(=O)C1=COC(OC(=O)Nc2cccc3ccccc23)C2C1CC1OC12C` [compound 37, (1S, 4aS,6S,7R,7aR)-6,7-epoxy-1,4a,5,6,7,7a-hexahydro-7-methyl-1-[(1-naphtyl)carbamoyloxy] cyclopenta [c] pyrane-4-carboxylic acid methylester], in that order: > 100 µg/mL, 102%, 88.6%, 14.1% and 22.6%.
For `COC(=O)C1=CO[C@@H](OC(=O)N2CCOCC2)[C@@H]2[C@@H]1C[C@@H]1O[C@]21C` [compound 38, (1S,4aS,6S,7R,7aR)-6,7-epoxy-1,4a,5,6,7,7a-hexahydro-7-methyl-1-(morpholinocarbonyloxy) cyclopenta [c] pyrane-4-carboxylic acid methylester], in that order: > 100 µg/mL, 92.3%, 61.8%, 15.3% and -10%.
For the compound `CNC(=O)O[C@@H]1OC=C(C(=O)OCc2ccccc2)[C@H]2C[C@@H]3O[C@]3(C)[C@H]12` [compound 11, (1S,4aS,6S,7R,7aR)-6,7-epoxy-7-methyl-1-(methylcarbamoyloxy)-1,4a,5,6,7,7a-hexahydrocyclopenta [c]-pyrane-4-carboxylic acid benzyl ester], the IC50 in assay [1] is > 100 µg/mL. In addition, in assay [2], the activity at 1 µg/mL is 102% and the activity at 10 µg/mL stood at 85.5%. Further, in assay [3] (20 h), the inhibition at 1 µg/mL was determined as 20.7% and the inhibition at 10 µg/mL turned out to be 40.3%.
On to `CCNC(=O)C1=CO[C@@H](OC(=O)NC)[C@@H]2[C@@H]1C[C@@H]1O[C@]21C` [compound 16, (1S,4aS,6S,7R,7aR)-6,7-epoxy-1,4a,5,6,7,7a-hexahydro-7-methyl-1-(methylcarbamoyloxy) cyclopenta [c]-pyrane-4-carboxylic acid ethylamide], for which the IC50 in assay [1] was > 100 µg/mL. Also, in assay [2], the activity at 1 µg/mL is 98.1% and the activity at 10 µg/mL was found to be 102%. Besides, in assay [3] (20 h), the inhibition at 1 µg/mL amounted to 30.7% and the inhibition at 10 µg/mL stood at 21.6%.
For `COC(=O)C1=CO[C@@H](OC(=O)Nc2ccccc2)[C@@H]2[C@@H]1C[C@@H]1O[C@]21C` [compound 35, (1S,4aS,6S,7R,7aR)-6,7-epoxy-1,4a,5,6,7,7a-hexahydro-7-methyl-1-(phenylcarbamoyloxy) cyclopenta [c] pyrane-4-carboxylic acid methylester], in that order: > 100 µg/mL, 84.4%, 67.2%, -3.3% and 20%.
With `CNC(=O)O[C@@H]1OC=C(C(=O)OC/C=C(\C)CCC=C(C)C)[C@H]2C[C@@H]3O[C@]3(C)[C@H]12` [compound 6, (1S,4aS,6S,7R,7aR)-6,7-epoxy-1,4a,5,6,7,7a-hexahydro-7-methyl-1-(methylcarbamoyloxy) cyclopenta [c]-pyrane-4-carboxylic acid geranyl ester], the IC50 in assay [1] was > 100 µg/mL. In assay [2], the activity at 1 µg/mL came to 106% and the activity at 10 µg/mL amounted to 105%. Moreover, in assay [3] (20 h), the inhibition at 1 µg/mL was 24.2% and the inhibition at 10 µg/mL stood at 8.7%.
For the compound `COC(=O)C1=CO[C@@H](OC(=O)NCCCl)[C@@H]2[C@@H]1C[C@@H]1O[C@]21C` [compound 32, (1S,4aS,6S,7R,7aR)-1-[(2-chloroethyl)carbamoyloxy]-6,7-epoxy-1,4a,5,6,7,7a-hexahydro-7-methylcyclopenta [c] pyrane-4-carboxylic acid methylester], the IC50 in assay [1] is > 100 µg/mL. Also, in assay [2], the activity at 1 µg/mL amounted to 93% and the activity at 10 µg/mL stood at 97%. Besides, in assay [3], the inhibition at 1 µg/mL is 68.8% and the inhibition at 10 µg/mL amounted to 30%.
For the compound `CCCCCC[C@]12O[C@H]1C[C@@H]1C(C(=O)OC)=CO[C@@H](OC(=O)NC)[C@@H]12` [compound 44, (1S,4aS,6S,7R,7aR)-6. 7-epoxy-7-n-hexyl-1,4a,5,6,7,7a-hexahydro-1-(methylcarbamoyloxy) cyclopenta [c] pyrane-4-carboxylic acid methy:lester], the IC50 in assay [1] is > 100 µg/mL. Further, in assay [2], the activity at 1 µg/mL was 99.4% and the activity at 10 µg/mL was 98.2%. Moreover, in assay [3] (20 h), the inhibition at 1 µg/mL turned out to be 69.7% and the inhibition at 10 µg/mL is 71.4%.
